From patent publication US6355677B1, “Adrenoleukodystrophy treatments and drug screening” (The Johns Hopkins University, priority 1998, dated 2002)
“Also recorded” adds a separate entry of the source.

Key:
PPARα = assay: Semi-quantitative RT-PCR, human primary fibroblasts; assay type: cell-based; conditions: human X-ALD fibroblasts, 5 mM, up to 10 days
Description: (§1) Total RNA from tissue culture cells (10^6-10^7 cells/sample) was isolated using TRizol Reagent™ (Life Technologies), treated with DNase I (100-200 units in 40 mM HC, 10mM NaC, 6 mM MgCl2, pH 7.3), incubated at 37° C. for 30 min, extracted with pheno/chloroform, and precipitated with isopropanol. cDNA was generated using MMLV reverse transcriptase (RT) (Life Technologies). PCR was done in the linear range of amplification (determined for each primerpair-cDNA combination). For each cDNA sample, a ‘cocktail’ was prepared, containing PCR buffer (Promega), 200 µM of each DNTP, 1.5 mM MgCl2, 250 ng cDNA, 0.25 U of Taq polymerase (Promega) and […]. The ‘cocktail’ was divided into separate tubes containing cDNA specific primers.
(§2) The PCR primers used are listed below. In the parentheses, h indicates human and m, mouse; this is followed by the gene name, product size and annealing temperature. For primer sequences, F is forward and R is reverse. […]

Pex11α = assay: as above; assay type: cell-based; conditions: 5 mM, 2 days
Description: as §1, §2

For O=C(O)CCCc1ccccc1 [4-PBA, 4-Phenyl butyrate], the PPARα expression (PPARα) was “unchanged” and the Pex11α expression (Pex11α) was “substantially increased; also recorded: substantial increase”.
